Results from PMC8161026, “Synthesis and Anticancer Activity Evaluation of 5-[2-Chloro-3-(4-nitrophenyl)-2-propenylidene]-4-thiazolidinones” (Molecules, 2021).

Tests used:
MDA-MB-231/ATCC = assay: NCI DTP 60 cell line screen, SRB; details: for GI50 / CC50: Homo sapiens, MDA-MB-231, 48 h; for CC50: read-out: LC50; for TGI: MDA-MB-231/ATCC (Breast Cancer), 48 h, SRB
MOLT-4 = details: for TI (Therapeutic Index): GI50 (normal blood lymphocyte)/GI50 (MOLT-4); for TGI: MOLT-4 (Leukemia), 48 h, SRB
A549/ATCC = assay: cells; details: Homo sapiens, A549, 48 h; for CC50: read-out: LC50
OVCAR-4 = assay: NCI DTP 60 cell line screen, SRB; details: for GI50 / CC50: Homo sapiens, OVCAR-4, 48 h; for CC50: read-out: LC50; for TGI: OVCAR-4 (Ovarian Cancer), 48 h, SRB
SNB-75 = SNB-75 (CNS Cancer), 48 h, SRB
MCF-7 (breast cancer) = assay: MTT cell viability assay; assay type: cell-based; details: Homo sapiens, MCF7; MCF-7, MTT, 24 h
Method: (§1) In the second stage of the research, Ciminalum-thiazolidinone hybrids were investigated for antitumor activity on the lines of gastric cancer (AGS), human colon cancer (DLD-1), and breast cancers (MCF-7 and MDA-MB-231). The study was performed in the MTT assay according to the method described previously. The studied cancer line was sensitive to the action of the studied compounds that inhibited its growth in micromolar ranges of GI50. The hit compounds that inhibited the growth of all four cancer lines with the lowest GI50 values were [5-[2-chloro-3-(4-nitrophenyl)prop-2-enylidene]-rhodanines 2c, 2d, 2h, and 2i (Table 4).

[1] = tested on: MDA-MB-231 (breast cancer); assay: MTT cell viability assay; assay type: cell-based; details: Homo sapiens; MDA-MB-231, MTT, 24 h
Method: as §1

AGS (gastric cancer) = assay: MTT cell viability assay; assay type: cell-based; details: Homo sapiens, 24 h
Method: as §1

[2] = tested on: DLD-1 (human colon cancer); assay: MTT cell viability assay; assay type: cell-based; details: DLD-1, MTT, 24 h
Method: as §1

SF-268 = assay: NCI DTP 60 cell line screen, SRB; details: for GI50 / CC50: Homo sapiens, SF-268, 48 h; for CC50: read-out: LC50; for TGI: SF-268 (CNS Cancer), 48 h, SRB
T-47D = T-47D (Breast Cancer), 48 h, SRB
HOP-62 = assay: cells; details: Homo sapiens, HOP-62, 48 h; for CC50: read-out: LC50
NCI-H460 [3] = assay: cells; details: Homo sapiens, NCI-H460, 48 h; for CC50: read-out: LC50
K-562 = details: for TI (Therapeutic Index): GI50 (normal blood lymphocyte)/GI50 (K-562); for TGI: K-562 (Leukemia), 48 h, SRB
SF-539 = assay: NCI DTP 60 cell line screen, SRB; details: for GI50 / CC50: Homo sapiens, SF-539, 48 h; for CC50: read-out: LC50; for TGI: SF-539 (CNS Cancer), 48 h, SRB
NCI/ADR-Res = assay: NCI DTP 60 cell line screen, SRB; details: 48 h
PC-3 = assay: cells; details: Homo sapiens, PC-3, 48 h; for CC50: read-out: LC50
LOX IMVI [4] = details: LOX IMVI (Melanoma), 48 h, SRB
HOP-92 = assay: NCI DTP 60 cell line screen, SRB; details: for TGI: HOP-92 (Non-Small Cell Lung Cancer), 48 h, SRB; for GI50 / CC50: Homo sapiens, HOP-92, 48 h; for CC50: read-out: LC50
MCF-7 = assay: NCI DTP 60 cell line screen, SRB; details: for GI50 / CC50: Homo sapiens, MCF7, 48 h; for CC50: read-out: LC50; for TGI: MCF-7 (Breast Cancer), 48 h, SRB
SK-MEL-2 = assay: cells; details: Homo sapiens, SK-MEL-2, 48 h; for CC50: read-out: LC50
SR = details: for TGI: SR (Leukemia), 48 h, SRB
NCI-H23 = NCI-H23 (Non-Small Cell Lung Cancer), 48 h, SRB
NCI-H460 [5] = details: NCI-H460 (Non-Small Cell Lung Cancer), 48 h, SRB
LOX IMVI [6] = assay: cells; details: Homo sapiens, 48 h; for CC50: read-out: LC50
SK-MEL-5 = assay: NCI DTP 60 cell line screen, SRB; details: for GI50 / CC50: Homo sapiens, SK-MEL-5, 48 h; for CC50: read-out: LC50; for TGI: SK-MEL-5 (Melanoma), 48 h, SRB
U251 = assay: cells; details: Homo sapiens, U-251, 48 h; for CC50: read-out: LC50
NCI-H226 = assay: NCI DTP 60 cell line screen, SRB
OVCAR-5 = assay: NCI DTP 60 cell line screen, SRB
A498 = assay: NCI DTP 60 cell line screen, SRB

For `O=C(O)CCN1C(=O)/C(=C/C(Cl)=C/c2ccc([N+](=O)[O-])cc2)SC1=S` [Compound 2h, 3-{5-[(Z,2Z)-2-Chloro-3-(4-nitrophenyl)-2-propenylidene]-4-oxo-2-thioxothiazolidin-3-yl}propanoic acid], the GI50 (MDA-MB-231/ATCC) was 1.08 µM, the CC50 (MDA-MB-231/ATCC) was 25.9 µM and the TGI (MDA-MB-231/ATCC) was 4.86 µM. For the same compound, the “TI (Therapeutic Index)” value (MOLT-4) was 3408.75, the TGI (MOLT-4) was 19.7 µM and the GI50 (A549/ATCC) was 1.76 µM. The CC50 (A549/ATCC) was > 100 µM, the GI50 (OVCAR-4) was 2.66 µM and the CC50 (OVCAR-4) was 56.2 µM. The TGI (OVCAR-4) was 14.9 µM, the TGI (SNB-75) was 46.0 µM and the GI50 (MCF-7 (breast cancer)) was 3.62 µM. For the same compound, the GI50 [1] was 1.63 µM, the GI50 (AGS (gastric cancer)) was 2.69 µM and the GI50 [2] was 3.67 µM. The GI50 (SF-268) was 2.12 µM, the CC50 (SF-268) was > 100 µM and the TGI (SF-268) was 9.74 µM. The TGI (T-47D) was > 100 µM, the GI50 (HOP-62) was 6.54 µM and the CC50 (HOP-62) was 52.8 µM. The GI50 (NCI-H460 [3]) was 0.804 µM, the CC50 (NCI-H460 [3]) was > 100 µM and the “TI (Therapeutic Index)” value (K-562) was 257.26. The TGI (K-562) was 2.83 µM, the GI50 (SF-539) was < 0.01 µM and the CC50 (SF-539) was 25.8 µM. The TGI (SF-539) was 0.267 µM, the GI50 (NCI/ADR-Res; Homo sapiens, NCI/ADR-RES) was 0.407 µM and the CC50 (NCI/ADR-Res; Homo sapiens, NCI/ADR-RES, read-out: LC50) was 6.43 µM. The TGI (NCI/ADR-Res; NCI/ADR-Res (Breast Cancer), SRB) was 2.11 µM, the GI50 (PC-3) was 0.712 µM and the CC50 (PC-3) was 41.9 µM. It also gave a TGI (LOX IMVI [4]) of 0.515 µM, a TGI (HOP-92) of 18.3 µM and a GI50 (HOP-92) of 4.81 µM. The CC50 (HOP-92) was 50.7 µM, the GI50 (MCF-7) was 0.239 µM and the CC50 (MCF-7) was > 100 µM. For the same compound, the TGI (MCF-7) was 14.4 µM, the GI50 (SK-MEL-2) was 0.802 µM and the CC50 (SK-MEL-2) was 65.1 µM. For the same compound, the TGI (SR) was 1.41 µM, the TGI (NCI-H23) was 3.22 µM and the TGI (NCI-H460 [5]) was 3.32 µM. The GI50 (LOX IMVI [6]) was 0.161 µM, the CC50 (LOX IMVI [6]) was > 100 µM and the GI50 (SK-MEL-5) was 0.0193 µM. The CC50 (SK-MEL-5) was 1.88 µM, the TGI (SK-MEL-5) was 0.0849 µM and the GI50 (U251) was 0.149 µM. The CC50 (U251) was > 100 µM.

With `O=C(O)C(Cc1ccccc1)N1C(=O)/C(=C/C(Cl)=C/c2ccc([N+](=O)[O-])cc2)SC1=S` (centres unmarked) [Compound 2j, 2-{5-[(Z,2Z)-2-Chloro-3-(4-nitrophenyl)-2-propenylidene]-4-oxo-2-thioxothiazolidin-3-yl}-3-phenylpropanoic acid] the GI50 (MDA-MB-231/ATCC) was 3.35 µM, the CC50 (MDA-MB-231/ATCC) was > 100 µM and the TGI (MDA-MB-231/ATCC) was > 100 µM. For the same compound, the “TI (Therapeutic Index)” value (MOLT-4) was 15.59, the TGI (MOLT-4) was > 100 µM and the GI50 (A549/ATCC) was 3.46 µM. The CC50 (A549/ATCC) was > 100 µM, the GI50 (OVCAR-4) was 3.21 µM and the CC50 (OVCAR-4) was > 100 µM. The TGI (OVCAR-4) was > 100 µM, the TGI (SNB-75) was 5.37 µM and the GI50 (SF-268) was 2.21 µM. The CC50 (SF-268) was > 100 µM, the TGI (SF-268) was > 100 µM and the TGI (T-47D) was 3.71 µM. The GI50 (HOP-62) was 2.31 µM, the CC50 (HOP-62) was > 100 µM and the GI50 (NCI-H226; Homo sapiens, NCI-H226, 48 h) was 1.58 µM. It also gave a CC50 (NCI-H226; Homo sapiens, NCI-H226, 48 h, read-out: LC50) of 6.76 µM, a TGI (NCI-H226; NCI-H226 (Non-Small Cell Lung Cancer), 48 h, SRB) of 3.27 µM and a GI50 (NCI-H460 [3]) of 2.19 µM. For the same compound, the CC50 (NCI-H460 [3]) was > 100 µM, the “TI (Therapeutic Index)” value (K-562) was 16.27 and the TGI (K-562) was > 100 µM. For the same compound, the GI50 (SF-539) was 2.74 µM, the CC50 (SF-539) was > 100 µM and the TGI (SF-539) was > 100 µM. The GI50 (OVCAR-5; Homo sapiens, OVCAR-5, 48 h) was 2.82 µM, the CC50 (OVCAR-5; Homo sapiens, OVCAR-5, 48 h, read-out: LC50) was > 100 µM and the TGI (OVCAR-5; OVCAR-5 (Ovarian Cancer), 48 h, SRB) was 7.91 µM. The GI50 (PC-3) was 2.53 µM, the CC50 (PC-3) was > 100 µM and the TGI (LOX IMVI [4]) was 3.26 µM. For the same compound, the TGI (HOP-92) was 5.71 µM, the GI50 (HOP-92) was 2.36 µM and the CC50 (HOP-92) was > 100 µM. For the same compound, the GI50 (MCF-7) was 2.38 µM, the CC50 (MCF-7) was > 100 µM and the TGI (MCF-7) was 10.7 µM. The GI50 (SK-MEL-2) was 1.87 µM, the CC50 (SK-MEL-2) was > 100 µM and the TGI (A498; A498 (Renal Cancer), 48 h, SRB) was 3.24 µM. The GI50 (A498; Homo sapiens, A498, 48 h) was 1.65 µM, the CC50 (A498; Homo sapiens, A498, 48 h, read-out: LC50) was 6.37 µM and the “TI (Therapeutic Index)” value (SR; GI50 (normal blood lymphocyte)/GI50 (SR)) was 19.99. For the same compound, the TGI (SR) was > 100 µM, the TGI (NCI-H23) was 4.86 µM and the TGI (NCI-H460 [5]) was > 100 µM. For the same compound, the GI50 (LOX IMVI [6]) was 1.64 µM, the CC50 (LOX IMVI [6]) was 6.46 µM and the GI50 (SK-MEL-5) was 1.68 µM. For the same compound, the CC50 (SK-MEL-5) was 5.6 µM, the TGI (SK-MEL-5) was 3.06 µM and the GI50 (U251) was 1.72 µM. For the same compound, the CC50 (U251) was 7.21 µM.
